Publication PMC8574098 (Journal of natural products, 2021)

Molecular target: matrix metalloproteinase-3 (MMP-3) (Homo sapiens, UniProt P08254)
Test: MMP-3 enzyme inhibition assay
Format: biochemical

Chain of matrix metalloproteinase-3 (MMP-3) (P08254 100-477): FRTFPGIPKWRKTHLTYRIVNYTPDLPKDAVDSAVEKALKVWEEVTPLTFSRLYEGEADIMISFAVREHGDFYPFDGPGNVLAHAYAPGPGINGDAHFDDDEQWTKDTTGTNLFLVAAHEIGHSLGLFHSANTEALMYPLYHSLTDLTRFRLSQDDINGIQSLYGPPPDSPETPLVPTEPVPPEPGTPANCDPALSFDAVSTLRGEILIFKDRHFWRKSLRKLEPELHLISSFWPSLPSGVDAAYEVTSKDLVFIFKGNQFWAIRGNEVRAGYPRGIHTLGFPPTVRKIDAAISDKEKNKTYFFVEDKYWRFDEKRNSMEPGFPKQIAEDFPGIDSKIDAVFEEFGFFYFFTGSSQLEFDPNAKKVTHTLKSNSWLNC

IC50: 50 µM
Substance: berkeleypenostatin E [compound 5]
